Measured values reported in ChEMBL document CHEMBL1201862, “PubChem BioAssay data set” (2004).
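Tested at 5 concentrations; 48 h exposure; 96-well plates; endpoints linearly interpolated, else capped at highest concentration. GI50 marks 50% less growth.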 The source made the active and inactive calls. No stated cut-off is given here; in the data, active = GI50 up to about 1.1 µM and inactive = higher.

What was measured:
Assay in all cases: inhibition of tumour cell growth, NCI panel, 48 h
NCI-H23 = system: NCI-H23
HL-60 = system: HL-60
KM12 = system: KM12
Malme-3M = system: Malme-3M
786-0 = system: 786-0
M14 = system: M14
CAKI-1 = system: CAKI-1
HOP-92 = system: HOP-92
SK-OV-3 = system: SK-OV-3
SF-295 = system: SF-295
UO-31 = system: UO-31
NCI-H522 = system: NCI-H522
SF-539 = system: SF-539
RXF 393 = system: RXF 393
OVCAR-5 = system: OVCAR-5
U-251 = system: U-251
MCF7 = system: MCF7
NCI/ADR-RES = system: NCI/ADR-RES
DU-145 = system: DU-145

| SMILES | GI50 (NCI-H23) | GI50 (HL-60) | GI50 (KM12) | GI50 (Malme-3M) | GI50 (786-0) | GI50 (M14) | GI50 (CAKI-1) | GI50 (HOP-92) | GI50 (SK-OV-3) | GI50 (SF-295) | GI50 (UO-31) | GI50 (NCI-H522) | GI50 (SF-539) | GI50 (RXF 393) | GI50 (OVCAR-5) | GI50 (U-251) | GI50 (MCF7) | GI50 (NCI/ADR-RES) | GI50 (DU-145) |
| --- | --- | --- | --- | --- | --- | --- | --- | --- | --- | --- | --- | --- | --- | --- | --- | --- | --- | --- | --- |
| O=c1[c-](-c2ccccc2)[se]c(-c2ccccc2)[n+]1-c1ccccc1 | 11.8 µM (inactive) | 1.53 µM (inactive) | 10.3 µM (inactive) | 15.5 µM (inactive) | 10.5 µM (inactive) | 4.99 µM (inactive) | 19.1 µM (inactive) | 18.6 µM (inactive) | 24.2 µM (inactive) | 3.61 µM (inactive) | 3.08 µM (inactive) | 2.91 µM (inactive) | 1.48 µM (inactive) | 3.18 µM (inactive) | – | – | – | – | – |
| CSc1s[s+]c(SC)c1[O-] | 20.5 µM (inactive) | 17.4 µM (inactive) | 62.4 µM (inactive) | 16.6 µM (inactive) | 16.5 µM (inactive) | 17.5 µM (inactive) | 20.7 µM (inactive) | 33 µM (inactive) | > 100 µM (inactive) | 47.9 µM (inactive) | > 100 µM (inactive) | 15.7 µM (inactive) | 20.6 µM (inactive) | 21.2 µM (inactive) | > 100 µM (inactive) | 26.7 µM (inactive) | – | – | – |
| c1ccc2c(c1)OCCc1cn[nH]c1-2 | > 100 µM (inactive) | 60.3 µM (inactive) | > 100 µM (inactive) | > 100 µM (inactive) | – | – | 0.452 µM (active) | > 42.3 µM (inactive) | > 100 µM (inactive) | > 100 µM (inactive) | > 100 µM (inactive) | > 100 µM (inactive) | > 100 µM (inactive) | > 69.2 µM (inactive) | > 100 µM (inactive) | > 100 µM (inactive) | > 100 µM (inactive) | > 100 µM (inactive) | – |
| CC(=O)Oc1cc2c(cc1OC(C)=O)OCC(c1ccccc1)C2 (centres undefined) | 32.2 µM (inactive) | 3.5 µM (inactive) | 25.8 µM (inactive) | 16.1 µM (inactive) | – | – | 16.4 µM (inactive) | 9.23 µM (inactive) | 40.7 µM (inactive) | 16.4 µM (inactive) | 30.2 µM (inactive) | 2.4 µM (inactive) | 25.7 µM (inactive) | 14.4 µM (inactive) | 33.3 µM (inactive) | 7.6 µM (inactive) | 32.5 µM (inactive) | 31.3 µM (inactive) | – |
| CC(C)N(C(=O)C12C3C4C1C1C2C3C41C(=O)O)C(C)C (centres undefined) | > 100 µM (inactive) | > 100 µM (inactive) | > 100 µM (inactive) | > 100 µM (inactive) | > 100 µM (inactive) | > 100 µM (inactive) | > 100 µM (inactive) | – | > 100 µM (inactive) | > 100 µM (inactive) | > 100 µM (inactive) | > 100 µM (inactive) | > 100 µM (inactive) | – | > 100 µM (inactive) | – | – | – | – |
| CC(=O)Nc1ccc(-c2nnc(SCC(=O)Nc3ccccc3Cl)o2)cc1 | > 100 µM (inactive) | > 100 µM (inactive) | > 100 µM (inactive) | > 100 µM (inactive) | > 100 µM (inactive) | > 100 µM (inactive) | > 100 µM (inactive) | – | > 100 µM (inactive) | > 100 µM (inactive) | > 100 µM (inactive) | > 100 µM (inactive) | > 100 µM (inactive) | > 100 µM (inactive) | > 100 µM (inactive) | > 100 µM (inactive) | – | – | – |
| O=C(Nc1ccc(Cl)cc1Cl)OC(Cn1cncn1)c1ccc(Cl)cc1Cl (centres undefined) | 14.6 µM (inactive) | 44 µM (inactive) | 17.2 µM (inactive) | 15 µM (inactive) | 19 µM (inactive) | 17.9 µM (inactive) | – | – | 18.3 µM (inactive) | 17.4 µM (inactive) | 13.2 µM (inactive) | 16.3 µM (inactive) | 17.9 µM (inactive) | 16.9 µM (inactive) | – | 16.1 µM (inactive) | – | – | – |
| N#CCc1ccc(/C(C#N)=C2/OC(=N)C(c3ccc(CC#N)cc3)C2=O)cc1 (centres undefined) | > 100 µM (inactive) | > 100 µM (inactive) | – | > 100 µM (inactive) | > 100 µM (inactive) | > 100 µM (inactive) | > 100 µM (inactive) | > 100 µM (inactive) | > 100 µM (inactive) | > 100 µM (inactive) | > 100 µM (inactive) | > 100 µM (inactive) | > 100 µM (inactive) | > 100 µM (inactive) | > 100 µM (inactive) | – | – | – | – |
| CSc1nc(CO)c(CO)n1C | > 100 µM (inactive) | > 100 µM (inactive) | > 100 µM (inactive) | – | – | – | > 100 µM (inactive) | > 100 µM (inactive) | > 100 µM (inactive) | > 100 µM (inactive) | > 100 µM (inactive) | > 100 µM (inactive) | > 100 µM (inactive) | > 100 µM (inactive) | > 100 µM (inactive) | > 100 µM (inactive) | > 100 µM (inactive) | > 100 µM (inactive) | – |
| NC1=NN(c2ccccc2)C(=O)C1/C(=N\NC(=O)c1cc2ccccc2cc1O)C(=O)Nc1ccc(Cl)c(Cl)c1 (centres undefined) | 28.9 µM (inactive) | 5.13 µM (inactive) | 43.6 µM (inactive) | 33 µM (inactive) | 31.3 µM (inactive) | 19.6 µM (inactive) | 54.5 µM (inactive) | 32.7 µM (inactive) | – | 35.8 µM (inactive) | 17.6 µM (inactive) | 16.5 µM (inactive) | 30.9 µM (inactive) | 49.2 µM (inactive) | 44.6 µM (inactive) | 33 µM (inactive) | – | – | – |
| CC(C)(C)c1cc(CCC(=O)Nc2ccc(Cl)cc2)nc(NC#N)n1 | > 100 µM (inactive) | > 100 µM (inactive) | > 100 µM (inactive) | – | > 100 µM (inactive) | > 100 µM (inactive) | > 100 µM (inactive) | 91 µM (inactive) | > 100 µM (inactive) | > 100 µM (inactive) | > 100 µM (inactive) | – | > 100 µM (inactive) | – | > 100 µM (inactive) | > 100 µM (inactive) | – | – | – |
| Cc1cc2c(cc1C)[n+]([O-])c(C(=O)C/C(=N/NC(=O)CC#N)C(=O)Nc1ccccc1C(F)(F)F)c(C)[n+]2[O-] | 91.4 µM (inactive) | 24.3 µM (inactive) | 34 µM (inactive) | 3.56 µM (inactive) | 52.8 µM (inactive) | 44.2 µM (inactive) | 57.7 µM (inactive) | – | > 100 µM (inactive) | 95.7 µM (inactive) | – | 18.8 µM (inactive) | 50.2 µM (inactive) | 77.1 µM (inactive) | 62.2 µM (inactive) | 49.5 µM (inactive) | – | – | – |
| C[N+](C)(C)CC(=O)N/N=C/c1oc(-c2cccc([N+](=O)[O-])c2)c(-c2cccc([N+](=O)[O-])c2)c1[N+](=O)[O-] | > 100 µM (inactive) | 42.3 µM (inactive) | – | > 100 µM (inactive) | 48.1 µM (inactive) | > 100 µM (inactive) | – | > 100 µM (inactive) | > 100 µM (inactive) | – | 79.1 µM (inactive) | 50.7 µM (inactive) | > 100 µM (inactive) | 76.9 µM (inactive) | > 100 µM (inactive) | – | – | – | – |
| Cc1cccc2nc3cccc(C(=O)NCCN(C)C)c3nc12 | 0.541 µM (active) | 0.461 µM (active) | 0.641 µM (active) | – | 0.647 µM (active) | 0.766 µM (active) | 0.482 µM (active) | 0.605 µM (active) | 0.574 µM (active) | 0.643 µM (active) | 0.239 µM (active) | – | 0.292 µM (active) | 1.03 µM (active) | 1.61 µM (inactive) | 0.492 µM (active) | – | – | – |
| COC(=O)C1=C(c2ccc3c(c2)OCO3)O[C@H](c2ccc3c(c2)OCO3)[C@H]1COC(C)=O | 37.3 µM (inactive) | 21.8 µM (inactive) | 62.4 µM (inactive) | 53.2 µM (inactive) | 36.2 µM (inactive) | 32.6 µM (inactive) | 27.5 µM (inactive) | 30.5 µM (inactive) | 41 µM (inactive) | 34.4 µM (inactive) | 38.7 µM (inactive) | – | 61.2 µM (inactive) | 40 µM (inactive) | 39.6 µM (inactive) | 53 µM (inactive) | – | – | – |
| NC1=NS(=O)(=O)Nc2[nH]c(-c3ccccc3)nc21 | > 100 µM (inactive) | > 100 µM (inactive) | > 100 µM (inactive) | > 100 µM (inactive) | > 100 µM (inactive) | > 100 µM (inactive) | – | > 100 µM (inactive) | > 100 µM (inactive) | > 100 µM (inactive) | > 100 µM (inactive) | > 100 µM (inactive) | > 100 µM (inactive) | > 100 µM (inactive) | > 100 µM (inactive) | > 100 µM (inactive) | – | – | – |
| Cc1nnc(Nc2ccccc2)o1 | > 100 µM (inactive) | > 100 µM (inactive) | > 100 µM (inactive) | > 100 µM (inactive) | > 100 µM (inactive) | > 100 µM (inactive) | > 100 µM (inactive) | – | > 100 µM (inactive) | > 100 µM (inactive) | > 100 µM (inactive) | > 100 µM (inactive) | > 100 µM (inactive) | > 100 µM (inactive) | > 100 µM (inactive) | > 100 µM (inactive) | > 100 µM (inactive) | > 100 µM (inactive) | > 100 µM (inactive) |
| CCOC(=O)Nc1cc2nnc(-c3ccccc3)nc2c(N)n1 | 14.1 µM (inactive) | 17.7 µM (inactive) | 1.1 µM (active) | 4.8 µM (inactive) | 10.4 µM (inactive) | 4.06 µM (inactive) | 27.6 µM (inactive) | 13 µM (inactive) | 2.45 µM (inactive) | 3.52 µM (inactive) | 27.9 µM (inactive) | > 10 µM (inactive) | 18.4 µM (inactive) | 18 µM (inactive) | 23.1 µM (inactive) | 30.5 µM (inactive) | – | – | – |
